Structures are written as SMILES. Calls of active or inactive are those of the source. The rule behind the calls is not given here.

T1 sequence (O14744 whole entry): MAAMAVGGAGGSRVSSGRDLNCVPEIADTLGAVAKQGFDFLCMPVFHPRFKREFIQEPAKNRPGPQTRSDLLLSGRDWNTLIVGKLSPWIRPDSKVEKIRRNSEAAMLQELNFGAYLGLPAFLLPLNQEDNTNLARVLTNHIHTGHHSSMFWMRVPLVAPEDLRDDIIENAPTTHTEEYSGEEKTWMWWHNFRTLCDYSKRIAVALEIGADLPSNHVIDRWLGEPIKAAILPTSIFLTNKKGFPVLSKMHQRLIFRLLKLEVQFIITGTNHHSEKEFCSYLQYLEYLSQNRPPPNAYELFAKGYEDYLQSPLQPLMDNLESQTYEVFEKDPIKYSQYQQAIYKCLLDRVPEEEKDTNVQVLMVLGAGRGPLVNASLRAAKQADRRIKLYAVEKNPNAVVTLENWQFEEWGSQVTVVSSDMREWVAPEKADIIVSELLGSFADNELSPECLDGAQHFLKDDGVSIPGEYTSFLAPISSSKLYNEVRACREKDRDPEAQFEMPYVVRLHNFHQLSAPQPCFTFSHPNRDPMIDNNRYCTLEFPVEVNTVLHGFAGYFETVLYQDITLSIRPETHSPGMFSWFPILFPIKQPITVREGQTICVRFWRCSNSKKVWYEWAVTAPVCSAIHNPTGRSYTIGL

One experiment concerns the target T1, Protein arginine N-methyltransferase 5 (Homo sapiens, UniProt O14744). The experiment can be described thus: Inhibition of PRMT5 (unknown origin) assessed as reduction in methyl transfer from [3H]-SAM to biotinylated histone H4 peptide H4-20-Biotin at 100 uM pre-incubated for 3 mins before [3H]-SAM addition and measured after 45 mins by scintillation proximity assay.
Regarding `N=C(N)c1ccc(OCCOc2ccc(C(=N)N)cc2)cc1`, the inhibition entry was “inactive”.

`N=C(N)c1ccc(Oc2ccc(C(=N)N)cc2)cc1`: the inhibition entry was “inactive”.

Regarding `N=C(N)c1ccc(OCCCOc2ccc(C(=N)N)cc2)cc1`, the inhibition result was “inactive”.

In the case of `N=C(N)c1ccc(OCCCCCCOc2ccc(C(=N)N)cc2)cc1` [HEXAMIDINE], the inhibition entry is “inactive”.

With `N=C(N)c1ccc(OC/C=C/COc2ccc(C(=N)N)cc2)cc1`, the inhibition result is “inactive”.

Turning to `N=C(N)c1ccc(-c2ccc(-c3ccc(C(=N)N)cc3)o2)cc1` [FURAMIDINE], the inhibition was determined as 50%.

As for `N=C(N)c1ccc(OCOc2ccc(C(=N)N)cc2)cc1`, the inhibition is 50%.

As for `N=C(N)c1ccc(OCCCCCCCCCCOc2ccc(C(=N)N)cc2)cc1`, the inhibition amounted to 50%.

For the compound `N=C(N)c1ccc(OCCCCOc2ccc(C(=N)N)cc2)cc1`, the inhibition entry is “inactive”.

As for `CC(CCCOc1ccc(C(=N)N)cc1)Oc1ccc(C(=N)N)cc1` (configuration not stated), the inhibition entry was “inactive”.

In the next experiment the target is T1, Protein arginine N-methyltransferase 5. The experiment is described as follows: Inhibition of PRMT5 (unknown origin) assessed as reduction in methyl transfer from [3H]-SAM to biotinylated histone H4 peptide H4-20-Biotin at 10 uM pre-incubated for 3 mins before [3H]-SAM addition and measured after 45 mins by scintillation proximity assay.
For `N=C(N)c1ccc(OCCOc2ccc(C(=N)N)cc2)cc1`, the inhibition entry was “inactive”.

In the case of `N=C(N)c1ccc(Oc2ccc(C(=N)N)cc2)cc1`, the inhibition entry was “inactive”.

As for `N=C(N)c1ccc(OCCCOc2ccc(C(=N)N)cc2)cc1`, the inhibition result is “inactive”.

On to `N=C(N)c1ccc(OCCCCCCOc2ccc(C(=N)N)cc2)cc1` [HEXAMIDINE], for which the inhibition entry was “inactive”.

As to `N=C(N)c1ccc(OC/C=C/COc2ccc(C(=N)N)cc2)cc1`, the inhibition result was “inactive”.

Take `N=C(N)c1ccc(OCCCCOc2ccc(C(=N)N)cc2)cc1`: the inhibition entry was “inactive”.

For the compound `CC(CCCOc1ccc(C(=N)N)cc1)Oc1ccc(C(=N)N)cc1` (configuration not stated), the inhibition result is “inactive”.

The target in a further experiment is Protein arginine N-methyltransferase 1 (Homo sapiens, UniProt Q99873). The experiment can be described thus: Inhibition of PRMT1 (unknown origin) assessed as reduction in methyl transfer from [3H]-SAM to biotinylated histone H4 peptide H4-20-Biotin at 10 uM pre-incubated for 3 mins before [3H]-SAM addition and measured after 15 mins by scintillation proximity assay.
Protein arginine N-methyltransferase 1, sequence (Q99873 whole entry): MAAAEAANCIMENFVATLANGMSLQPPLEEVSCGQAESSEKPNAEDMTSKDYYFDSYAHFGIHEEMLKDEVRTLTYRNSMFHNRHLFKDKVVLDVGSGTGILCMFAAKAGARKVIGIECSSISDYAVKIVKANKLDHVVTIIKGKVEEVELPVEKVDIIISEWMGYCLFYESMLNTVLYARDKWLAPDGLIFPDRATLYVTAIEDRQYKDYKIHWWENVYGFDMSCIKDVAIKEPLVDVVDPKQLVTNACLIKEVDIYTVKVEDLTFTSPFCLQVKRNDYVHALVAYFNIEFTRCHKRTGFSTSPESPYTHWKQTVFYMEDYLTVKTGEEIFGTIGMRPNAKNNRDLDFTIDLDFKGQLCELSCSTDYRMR
As to `N=C(N)c1ccc(-c2ccc(-c3ccc(C(=N)N)cc3)o2)cc1` [FURAMIDINE], the IC50 came out at 22 µM.

The target of a further experiment is T1, Protein arginine N-methyltransferase 5. The experiment can be described thus: Inhibition of PRMT5 (unknown origin) assessed as reduction in methyl transfer from [3H]-SAM to biotinylated histone H4 peptide H4-20-Biotin pre-incubated for 3 mins before [3H]-SAM addition and measured after 45 mins by scintillation proximity assay.
As to `N=C(N)c1ccc(OCCCCCCOc2ccc(C(=N)N)cc2)cc1` [HEXAMIDINE], the IC50 was 357 µM.

Regarding `N=C(N)c1ccc(/C=C/c2ccc(C(=N)N)cc2)cc1` [STILBAMIDINE], the IC50 worked out at 712 µM.

Take `N=C(N)c1ccc(-c2ccc(-c3ccc(C(=N)N)cc3)o2)cc1` [FURAMIDINE]: the IC50 came to 256 µM.

Regarding `N=C(N)c1ccc(OCCCCCCCCCCOc2ccc(C(=N)N)cc2)cc1`, the IC50 came out at 43 µM.

Source of the values: ChEMBL document CHEMBL4138063, “Discovery of Decamidine as a New and Potent PRMT1 Inhibitor” (Medchemcomm, 2017).
